According to the supplement of paper PMC13380429:

Tests used:
Details in all cases: 72 h
Caco-2 [1] = assay: cell viability relative to DMSO; higher = less toxic
Calu-3 [2] = assay: as above
HepG2 [3] = assay: as above
U2OS [4] = assay: as above
Vero E6 [5] = assay: as above
Caco-2 [6] = assay: relative viability EC50 (midpoint between 100% and the lowest measured viability); higher = less toxic
Calu-3 [7] = assay: as above
HepG2 [8] = assay: as above
U2OS [9] = assay: as above
Vero E6 [10] = assay: as above
Caco-2 [11] = assay: drug sensitivity score (DSS) for viability; higher = more toxic; extreme values may be limits of the assay
Calu-3 [12] = assay: as above
HepG2 [13] = assay: as above
U2OS [14] = assay: as above
Vero E6 [15] = assay: as above

Compound	cell viability (Caco-2 [1]; 1 nM)	cell viability (Caco-2 [1]; 10 nM)	cell viability (Caco-2 [1]; 100 nM)	cell viability (Caco-2 [1]; 1000 nM)	cell viability (Caco-2 [1]; 10000 nM)	cell viability (Calu-3 [2]; 1 nM)	cell viability (Calu-3 [2]; 10 nM)	cell viability (Calu-3 [2]; 100 nM)	cell viability (Calu-3 [2]; 1000 nM)	cell viability (Calu-3 [2]; 10000 nM)	cell viability (HepG2 [3]; 1 nM)	cell viability (HepG2 [3]; 10 nM)	cell viability (HepG2 [3]; 100 nM)	cell viability (HepG2 [3]; 1000 nM)	cell viability (HepG2 [3]; 10000 nM)	cell viability (U2OS [4]; 1 nM)	cell viability (U2OS [4]; 10 nM)	cell viability (U2OS [4]; 100 nM)	cell viability (U2OS [4]; 1000 nM)	cell viability (U2OS [4]; 10000 nM)	cell viability (Vero E6 [5]; 1 nM)	cell viability (Vero E6 [5]; 10 nM)	cell viability (Vero E6 [5]; 100 nM)	cell viability (Vero E6 [5]; 1000 nM)	cell viability (Vero E6 [5]; 10000 nM)	relative viability EC50 (Caco-2 [6])	relative viability EC50 (Calu-3 [7])	relative viability EC50 (HepG2 [8])	relative viability EC50 (U2OS [9])	relative viability EC50 (Vero E6 [10])	drug sensitivity score (Caco-2 [11])	drug sensitivity score (Calu-3 [12])	drug sensitivity score (HepG2 [13])	drug sensitivity score (U2OS [14])	drug sensitivity score (Vero E6 [15])
NC(=O)N/N=C/c1ccc([N+](=O)[O-])o1 [nitrofurazone]	93.8%	101%	98.8%	101%	87.2%	104%	96.9%	105%	89%	95.1%	92.5%	101%	110%	108%	87.4%	101%	98.1%	103%	100%	103%	96.8%	101%	95.1%	97.7%	106%	> 10 µM	> 10 µM	> 10 µM	> 10 µM	> 10 µM	0.1	0.2	0	0	0
O=C1c2cccc3c2[C@H](CCC3)CN1[C@@H]1CN2CCC1CC2 [palonosetron]	105%	97.5%	90.8%	96.8%	102%	106%	99%	91.3%	100%	98.8%	94.4%	90.2%	88.6%	96.1%	88.9%	98.9%	97.5%	99.5%	100%	94.2%	99.7%	103%	103%	99.3%	82.4%	> 10 µM	> 10 µM	> 10 µM	> 10 µM	> 10 µM	0	0	0	0	0.5
NC(=O)NC(=O)Cc1ccccc1 [phenacemide]	102%	94.4%	95.6%	100%	94.8%	102%	97.2%	101%	87.7%	104%	96.4%	103%	95.5%	107%	102%	104%	102%	102%	98.8%	97.6%	97.5%	101%	96.8%	99.7%	96.9%	> 10 µM	> 10 µM	> 10 µM	> 10 µM	> 10 µM	0	0	0	0	0
CCC(c1ccccc1)c1c(O)c2ccccc2oc1=O (stereo not given) [phenprocoumon]	91.4%	97.6%	104%	92.2%	104%	102%	100%	102%	93.6%	94.8%	90.2%	107%	87.5%	99.7%	108%	96.8%	92.5%	101%	99.8%	104%	100%	108%	97.3%	102%	102%	> 10 µM	> 10 µM	> 10 µM	> 10 µM	> 10 µM	0	0	0	0	0
O=C1NC(=O)C(c2ccccc2)(c2ccccc2)N1 [phenytoin]	97.9%	95.9%	88.6%	101%	99.3%	102%	96.1%	97.8%	93.5%	84.9%	108%	94.8%	99.5%	95.8%	101%	97.7%	104%	96%	101%	98.9%	96%	103%	100%	98.4%	100%	> 10 µM	> 10 µM	> 10 µM	> 10 µM	> 10 µM	0	0.3	0	0	0
CCCN(CCC)C(=O)C(CCC(=O)OCCCN1CCN(CCOC(=O)Cc2c(C)n(C(=O)c3ccc(Cl)cc3)c3ccc(OC)cc23)CC1)NC(=O)c1ccccc1 (stereo not given) [proglumetacin]	104%	96.5%	99.1%	112%	108%	95.5%	96.2%	99%	110%	96.6%	91%	114%	112%	85.3%	93.9%	95.9%	106%	101%	104%	94%	115%	97.2%	98%	91.5%	102%	> 10 µM	> 10 µM	> 10 µM	> 10 µM	> 10 µM	0	0	1.1	0	0
Cc1ccc2c(-c3ccccc3)nc(=O)n(C(C)C)c2c1 [proquazone]	86.9%	89.3%	81.4%	103%	99.8%	92.9%	94.9%	104%	105%	117%	96.7%	109%	102%	102%	110%	99.7%	94.5%	96.2%	92.4%	105%	93.4%	92.4%	89.3%	105%	103%	> 10 µM	> 10 µM	> 10 µM	> 10 µM	> 10 µM	0	0	0	0	0
